From patent US9375005B2, “5-halogenopyrazole indanyl carboxamides” (BAYER CROPSCIENCE AG, priority 2012, dated 2016)
Where two headings read alike, the source gives them in different places.

Key:
Phakopsora pachyrhizi = assay: In vivo preventive Phakopsora test (soybeans); settings: concentration 10 ppm of active ingredient; soybean plants; evaluated 7 days after inoculation
Uromyces appendiculatus = assay: In vivo preventive test on Uromyces appendiculatus (bean rust); settings: bean plants sprayed 24 h before contamination, grading 11 days after contamination
Summary of the method: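 Saxa bean plants grown at 24° C were sprayed at the 2-leaf stage (9 cm) with compound in acetone/tween/DMSO/water; controls got solvent mix only. Leaves inoculated 24 h later with U. appendiculatus spores (150 000 spores/ml). Efficacy (%) graded 11 days post-inoculation versus controls.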

Puccinia recondita = assay: In vivo preventive test on Puccinia recondita (brown rust on wheat); settings: wheat plants sprayed 24 h before contamination, grading 12 days after contamination
Method: Plants, used as controls, are treated with the mixture of acetone/tween/DMSO/water not containing the active material. After 24 hours, the plants are contaminated by spraying the leaves with an aqueous suspension of Puccinia recondita spores (100 000 spores per ml). […] Grading (% of efficacy) is carried out 12 days after the contamination, in comparison with the control plants.

Alternaria brassicae = assay: In vivo preventive test on Alternaria brassicae (leaf spot on radish); settings: radish plants sprayed 24 h before contamination, grading 6 days after contamination vs control plants
Method: Radish plants (“Pernod Clair” variety), sown in starter cups on a 50/50 peat soil-pozzolana substrate and grown at 17° C., are treated at the cotyledon stage by spraying with the active ingredient prepared as described above. Plants, used as controls, are treated with the mixture of acetone/tween/DMSO/water not containing the active material. After 24 hours, the plants are contaminated by spraying the cotyledons with an aqueous suspension of Alternaria brassicae spores (50 000 spores per ml). The spores are collected from a 15-day-old culture. […] Grading (% of efficacy) is carried out 6 days after the contamination, in comparison with the control plants.

[1] = Measurement of log P values by HPLC on reversed phase columns (EEC directive 79/831 Annex V.A8); format: physicochemical
Botrytis cinerea = assay: In vivo preventive test on Botrytis cinerea (grey mould); settings: gherkin plants sprayed 24 h before contamination, grading 4 to 5 days after contamination
Method: Gherkin plants (“Vert petit de Paris” variety), sown in starter cups on a 50/50 peat soil-pozzolana substrate and grown at 24° C., are treated at the Z11 cotyledon stage by spraying with the active ingredient prepared as described above. Plants, used as controls, are treated with the mixture of acetone/tween/DMSO/water not containing the active material. After 24 hours, the plants are contaminated by spraying the cotyledons with an aqueous suspension of cryopreserved Botrytis cinerea spores (50 000 spores per ml). The spores are suspended in a nutrient solution composed of 10 g/L of PDB, 50 g/L of D-Fructose, 2 g/L of NH4NO3 and 1 g/L of KH2PO4. […] Grading (% of efficacy) is carried out 4 to 5 days after the contamination, in comparison with the control plants.

Septoria tritici = assay: In vivo preventive test on Septoria tritici (leaf spot on wheat); settings: dose 500 ppm; wheat plants sprayed 24 h before contamination; grading 24 days after contamination
Method: Wheat plants (“Scipion” variety), sown in starter cups on a 50/50 peat soil-pozzolana substrate and grown at 22° C., are treated at the 1-leaf stage (10 cm height) by spraying with the active ingredient prepared as described above. Plants, used as controls, are treated with the mixture of acetone/tween/DMSO/water not containing the active material. After 24 hours, the plants are contaminated by spraying the leaves with an aqueous suspension of cryopreserved Septoria tritici spores (500 000 spores per ml). […] Grading (% of efficacy) is carried out 24 days after the contamination, in comparison with the control plants.

Sphaerotheca fuliginea = assay: In vivo preventive test on Sphaerotheca fuliginea (powdery mildew on cucurbits); settings: dose 500 ppm; gherkin plants sprayed 24 h before contamination; grading 12 days after contamination
Method: Gherkin plants (“Vert petit de Paris” variety), sown in starter cups on a 50/50 peat soil-pozzolana substrate and grown at 24° C., are treated at the Z11 cotyledon stage by spraying with the active ingredient prepared as described above. Plants, used as controls, are treated with the mixture of acetone/tween/DMSO/water not containing the active material. After 24 hours, the plants are contaminated by spraying the cotyledons with an aqueous suspension of Sphaerotheca fuliginea spores (100 000 spores per ml). The spores are collected from infected plants. The contaminated to gherkin plants are incubated at about 20° C. and at 70-80% relative humidity. Grading (% of efficacy) is carried out 12 days after the contamination, in comparison with the control plants.

Pyrenophora teres = assay: In vivo preventive test on Pyrenophora teres (net blotch on barley); settings: dose 500 ppm; barley plants sprayed 24 h before contamination; grading 14 days after contamination
Method: Barley plants (“Plaisant” variety), sown in starter cups on a 50/50 peat soil-pozzolana substrate and grown at 22° C., are treated at the 1-leaf stage (10 cm height) by spraying with the active ingredient prepared as described above. Plants, used as controls, are treated with the mixture of acetone/tween/DMSO/water not containing the active material. After 24 hours, the plants are contaminated by spraying the leaves with an aqueous suspension of Pyrenophora teres spores (12 000 spores per ml). The spores are collected from a 12-day-old culture. […] Grading (% of efficacy) is carried out 14 days after the contamination, in comparison with the control plants.

Pyricularia oryzae = format: in vivo; settings: rice plants sprayed 24 h before contamination, grading 6 days after contamination

Row | Structure (SMILES) | Eff. % (Uromyces appendiculatus; dose 500 ppm) | Eff. % (Puccinia recondita; dose 500 ppm) | logP ([1]; method marked [a]) | Eff. % (Septoria tritici) | Eff. % (Sphaerotheca fuliginea) | Eff. % (Alternaria brassicae; dose 500 ppm) | Eff. % (Botrytis cinerea; dose 500 ppm) | Eff. % (Pyrenophora teres) | also measured
1 | CC1CC(C)c2c(NC(=O)c3c(C(F)F)nn(C)c3Cl)cccc21 (stereo not drawn) [Example 44] | 100% | 100% |  |  |  |  |  |  | Eff. % (Phakopsora pachyrhizi): 98%
2 | CC1CC2(CCCCC2)c2cccc(NC(=O)c3c(C(F)F)nn(C)c3F)c21 (stereo not drawn) [Example 107] |  |  | 4.73[a] |  |  |  |  |  | Eff. % (Alternaria brassicae; dose 100 ppm): 97%; Eff. % (Uromyces appendiculatus; dose 100 ppm): 100%; Eff. % (Puccinia recondita; dose 100 ppm): 100%; Eff. % (Botrytis cinerea; dose 100 ppm): 100%
3 | CC1c2cccc(NC(=O)c3c(C(F)F)nn(C)c3F)c2CC1(C)C (stereo not drawn) [Example 78] | 100% | 98% | 3.92[a] | 88% | 100% | 95% | 75% |  | 
4 | CC(C)CC1CC(C)c2c(NC(=O)c3c(C(F)F)nn(C)c3F)cccc21 (stereo not drawn) [Example 80] | 100% | 98% | 4.71[a] | 86% | 98% | 97% |  | 97% | 
5 | CC1CC2(CC2)c2cccc(NC(=S)c3c(C(F)F)nn(C)c3F)c21 (stereo not drawn) [Example 60] | 100% |  | 3.71[a] | 93% | 100% |  | 100% | 100% | 
6 | Cn1nc(C(F)F)c(C(=O)Nc2cccc3c2CC(C)(C)C3)c1Cl [Example 73] | 100% | 100% | 3.21[a] | 71% | 100% | 83% |  |  | 
7 | Cc1ccc(NC(=O)c2c(C(F)F)nn(C)c2F)c2c1C(C)(C)CC2C (stereo not drawn) [Example 19] | 77% | 94% | 3.99[a]; |  |  | 75% | 98% | 97% | logP ([1]; method marked [b]): 3.92[b]
8 | Cn1nc(C(F)F)c(C(=O)Nc2cccc3c2C(C)(C)CC3)c1Cl [Example 89] |  |  | 3.53[a] |  |  |  |  |  | Eff. % (Pyricularia oryzae; dose 100 ppm): 93%
9 | CC1Cc2c(NC(=O)c3c(C(F)F)nn(C)c3Cl)cccc2C1(C)C (stereo not drawn) [Example 46] | 100% | 100% | 4.19[a] |  |  | 86% |  | 75% | Eff. % (Phakopsora pachyrhizi): 94%; Eff. % (Pyricularia oryzae; dose 500 ppm): 97%
10 | CC1CC2(CC2)c2cccc(NC(=O)c3c(C(F)F)nn(C)c3Cl)c21 (stereo not drawn) [Example 51] | 100% | 98% | 3.83[a] |  |  |  | 94% | 70% | Eff. % (Phakopsora pachyrhizi): 93%
11 | Cn1nc(C(F)F)c(C(=O)Nc2cccc3c2CC(Cc2ccccc2)C3)c1Cl (stereo not drawn) [Example 39] | 100% |  | 4.41[a] |  |  | 79% |  |  | Eff. % (Pyricularia oryzae; dose 500 ppm): 86%
